Series [1] has as its target T1, Nuclear receptor ROR-gamma (Homo sapiens, UniProt P51449).
T1 sequence (P51449 whole entry): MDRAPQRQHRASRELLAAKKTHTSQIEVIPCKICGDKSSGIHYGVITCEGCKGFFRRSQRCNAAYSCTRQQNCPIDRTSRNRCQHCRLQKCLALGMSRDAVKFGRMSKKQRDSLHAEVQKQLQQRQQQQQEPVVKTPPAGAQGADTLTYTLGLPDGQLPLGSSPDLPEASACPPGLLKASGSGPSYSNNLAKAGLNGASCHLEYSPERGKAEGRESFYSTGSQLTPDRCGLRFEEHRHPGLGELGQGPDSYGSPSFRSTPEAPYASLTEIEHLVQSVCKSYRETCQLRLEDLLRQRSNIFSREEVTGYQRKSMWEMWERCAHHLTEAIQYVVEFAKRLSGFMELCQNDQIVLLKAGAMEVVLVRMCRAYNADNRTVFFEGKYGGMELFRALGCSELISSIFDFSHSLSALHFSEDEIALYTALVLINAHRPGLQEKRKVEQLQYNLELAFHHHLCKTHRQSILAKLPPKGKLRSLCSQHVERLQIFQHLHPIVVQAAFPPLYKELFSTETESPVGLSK
Nature of the series: Displacement of 25-[26,27-3H]hydroxycholesterol from RORgammat receptor ligand binding domain (unknown origin) after 60 mins.

Series [2] is described as follows: Oral biavailability in C57BL/6 mouse at 10 mg/kg. It counts as ADME, organism-based. Also noted: dose 10 mg/kg. The settings on record: in vivo.
Series [3] addresses T1, Nuclear receptor ROR-gamma. Description: Inhibition of APC-labeled RORgammat receptor ligand binding domain (unknown origin) after 1 hr by FRET assay.
Series [4] relates to Mus musculus. Description: Dose normalized AUC (0 to infinity) in C57BL/6 mouse at 10 mg/kg, po. Type of series: ADME, organism-based. More on the design: dose 10 mg/kg, route oral. To be noted: in vivo.
The subject of series [5] is Mus musculus. Description: Dose normalized AUC (0 to infinity) in C57BL/6 mouse at 1 mg/kg, iv. More on the design: dose 1 mg/kg, route intravenous. Type of series: ADME, organism-based. To be noted: in vivo.
Series [6] is described as follows: Half life in C57BL/6 mouse at 1 mg/kg, iv. Type of series: ADME, organism-based. More on the design: dose 1 mg/kg, route intravenous. To be noted: in vivo.
The target in series [7] is T2, Nuclear receptor ROR-gamma (Mus musculus, UniProt P51450).
T2 sequence (P51450 whole entry): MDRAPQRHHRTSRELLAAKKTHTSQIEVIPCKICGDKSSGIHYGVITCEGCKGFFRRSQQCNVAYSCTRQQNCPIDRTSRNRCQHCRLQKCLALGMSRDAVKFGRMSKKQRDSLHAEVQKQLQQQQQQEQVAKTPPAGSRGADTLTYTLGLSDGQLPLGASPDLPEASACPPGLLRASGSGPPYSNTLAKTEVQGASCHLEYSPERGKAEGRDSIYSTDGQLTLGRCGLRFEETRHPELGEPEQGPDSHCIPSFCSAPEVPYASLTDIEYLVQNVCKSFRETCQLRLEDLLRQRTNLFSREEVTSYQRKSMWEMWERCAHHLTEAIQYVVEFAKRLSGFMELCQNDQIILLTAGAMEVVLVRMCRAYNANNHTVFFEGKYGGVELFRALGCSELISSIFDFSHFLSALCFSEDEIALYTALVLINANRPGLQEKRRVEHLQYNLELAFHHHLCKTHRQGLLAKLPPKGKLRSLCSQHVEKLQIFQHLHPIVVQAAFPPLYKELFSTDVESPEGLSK
Description: Inhibition of RORgammat receptor ligand binding domain in mouse spleen CD4+ T cells assessed as inhibition of IL-17 production after 3 days by ELISA. It counts as cell-based, T-cell.

Series [8] in a line: Cmax in C57BL/6 mouse blood at 10 mg/kg, po. Type of series: ADME, organism-based. More on the design: dose 10 mg/kg, route oral.
A short description of series [9]: Volume of distribution at steady state in C57BL/6 mouse at 1 mg/kg, iv. Type of series: ADME, organism-based. Also noted: dose 1 mg/kg, route intravenous. To be noted: in vivo, read-out: Vdss.
Series [10] can be described thus: Clearance in C57BL/6 mouse at 1 mg/kg, iv. To be noted: in vivo. It counts as ADME, organism-based. More on the design: dose 1 mg/kg, route intravenous.
Series [11] deals with T3, Nuclear receptor ROR-gamma (Homo sapiens) (UniProt P51449).
T3 sequence (whole entry): T1 sequence (P51449 whole entry)
Description: Binding affinity to RORgammat receptor ligand binding domain (unknown origin) assessed as change in melting temperature at 50 uM by circular dichroism spectrophotometric analysis

pIC50, pKi: −log10 of the molar value.

By pKi is commonly meant the negative decadic logarithm of the Ki, by convention in mol/L. The bioavailability is the share of a dose that reaches the circulation, judged against a reference dose that is usually intravenous. The low end stands for little systemic uptake, the high end for much systemic uptake. Broadly, the pIC50 is the negative decadic logarithm of the IC50, by convention in mol/L. Usually half-life stands for how long it takes for the measured level to halve. A word on the Cmax: it is the maximum level reached in the sampled fluid or tissue. Usually clearance stands for a measure of how efficiently the substance is removed, as volume per time. Usually ΔTm stands for the change in melting temperature against a reference sample.

In turn, `CCS(=O)(=O)c1ccc(CC(=O)Nc2nc(-c3cccc(Cl)c3)c(C(=O)c3ccccc3Cl)s2)cc1` showed a pKi in series [1] of 7.40. Moreover, the bioavailability in [2] is 48%. The negative logarithm of the IC50 (pIC50) in series [3] is 7.80; in series [7] it was 6.70. For the same compound, the values for the AUC/dose in the series on Mus musculus [4] and with Mus musculus [5] were 448 ng·h/mL/mg/kg and 937 ng·h/mL/mg/kg, respectively. For the same compound, in [6], the half-life was 60 min. This compound had a Cmax in series [8] of 1550 ng/mL. Moreover, in [9], the Vd was determined as 1.24 L/kg. This compound showed a clearance in series [10] of 17.8 mL/min/kg. For the same compound, the ΔTm in series [11] came to 11.3 °C.

For the origin of these results see ChEMBL document CHEMBL3102747, “Discovery of novel N-(5-(arylcarbonyl)thiazol-2-yl)amides and N-(5-(arylcarbonyl)thiophen-2-yl)amides as potent RORγt inhibitors” (Bioorg Med Chem, 2014).
